Assay results reported in PubChem BioAssay (NCI).
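Cultured in 96-well plates, cells were exposed to test compound for 48 hours across five concentrations. Definition used: TGI = concentration required for complete inhibition of growth.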 *1 amine or outer side, *2 acyl side, *3 side chain or, on linkers, in order; H or OH if unused. Where a SMILES comes first, the peptide text is derived from it. Bridges are numbered along the chain shown (N, C = ends). [ ]: non-standard residue; d: D form. X35 = CC[C@H](C)[C@@H](N[*:1])[C@@H](O)CC(=O)O[C@H](C(=O)[C@H](C)C(=O)[*:2])C(C)C; NMeY = CN[C@@H](Cc1ccc(O)cc1)C(=O)O

Experiments:
Assay in all cases: growth of human tumour cells (NCI), 48 h
OVCAR-3 ovarian = tested on: OVCAR-3 ovarian
SK-MEL-2 melanoma = tested on: SK-MEL-2 melanoma
COLO 205 colon = tested on: COLO 205 colon
SNB-75 CNS = tested on: SNB-75 CNS
NCI/ADR-RES ovarian = tested on: NCI/ADR-RES ovarian
NCI-H226 lung = tested on: NCI-H226 lung
HT29 colon = tested on: HT29 colon
MALME-3M melanoma = tested on: MALME-3M melanoma
RPMI-8226 leukemia = tested on: RPMI-8226 leukemia

Compound	TGI (OVCAR-3 ovarian)	TGI (SK-MEL-2 melanoma)	TGI (COLO 205 colon)	TGI (SNB-75 CNS)	TGI (NCI/ADR-RES ovarian)	TGI (NCI-H226 lung)	TGI (HT29 colon)	TGI (MALME-3M melanoma)	TGI (RPMI-8226 leukemia)
C/C(O)=C(\C=N\C(=S)N=Nc1c(O)[nH]c2ccccc12)C(=O)Nc1ccccc1C	> 100 µM	> 100 µM	> 100 µM	> 100 µM	> 100 µM	> 100 µM	> 100 µM	–	–
c1ccc2sc(SSSc3nc4ccccc4s3)nc2c1	–	> 100 µM	> 100 µM	> 100 µM	> 100 µM	> 100 µM	> 100 µM	> 100 µM	> 100 µM
CC(Br)CN1CCOCC1 (centres undefined)	> 100 µM	> 100 µM	> 100 µM	–	> 100 µM	> 100 µM	> 100 µM	> 100 µM	> 100 µM
CC(O)CNC(=O)Nc1c(C(F)(F)F)cc(-c2ccccc2)[nH]c1=O (centres undefined)	> 100 µM	> 100 µM	> 100 µM	–	> 100 µM	> 100 µM	> 100 µM	> 100 µM	–
C=C1CC[C@@H]2C13[C@@H]1[C@H](CC(=O)[C@@]23C)C1(C)C (some centres undefined)	> 100 µM	> 100 µM	> 100 µM	–	> 100 µM	> 100 µM	> 100 µM	> 100 µM	> 100 µM
CCOC(=O)CN1C(=O)NC(C)(c2ccccc2)C1=O (centres undefined)	> 100 µM	> 100 µM	> 100 µM	> 100 µM	> 100 µM	–	> 100 µM	–	> 100 µM
CCc1n[nH]c(=O)n1CC	> 100 µM	> 100 µM	> 100 µM	–	> 100 µM	> 100 µM	> 100 µM	> 100 µM	> 100 µM
CCCCN=NNc1cn(C2OC(CO)C(O)C2O)c(=O)[nH]c1=O (centres undefined)	> 100 µM	> 100 µM	> 100 µM	–	> 100 µM	> 100 µM	> 100 µM	> 100 µM	–
CCCCCCCCOC(=O)C12Oc3ccc(-c4ccc5c(c4O)C(O)=C4C(=O)CC(C)C(O)C4(C(=O)OCCCCCCCC)O5)c(O)c3C(O)=C1C(=O)CC(C)C2O (centres undefined)	> 100 µM	47.4 µM	65.3 µM	25.5 µM	> 100 µM	> 100 µM	> 100 µM	> 100 µM	–
Clc1cccc(-c2nc3cccc4c3n2Cc2ncccc2-4)c1	> 100 µM	–	> 100 µM	58.6 µM	> 100 µM	> 100 µM	> 100 µM	> 100 µM	–
Clc1sc(Cl)c2c1[C@H](Cl)C[C@@H]2Cl	70.9 µM	65.9 µM	62.2 µM	64.7 µM	37.4 µM	39.8 µM	> 100 µM	59.6 µM	–
CC[C@H](C)[C@H]1NC(=O)[C@@H](N)[C@@H](C)OC(=O)[C@H](Cc2ccc(OC)cc2)N(C)C(=O)[C@@H]2CCCN2C(=O)[C@H](CC(C)C)NC(=O)[C@@H](C)C(=O)[C@H](C(C)C)OC(=O)C[C@@H]1O (H-T[X35]LP[NMeY](Me); ester 1-C)	> 100 µM	> 100 µM	–	> 100 µM	> 100 µM	> 100 µM	38.8 µM	> 100 µM	> 100 µM
CCCCC(=O)/C=c1/cc(C)[nH]c2cccc3cnn1c32	> 100 µM	> 100 µM	> 100 µM	–	> 100 µM	> 100 µM	> 100 µM	> 100 µM	> 100 µM
CN1CCN(c2cc3nc(-c4ccc(Cl)cc4)[nH]c3cc2F)CC1	25.7 µM	34.5 µM	51.1 µM	50.1 µM	67.6 µM	33.9 µM	–	23.4 µM	41.4 µM
O=Cc1ccc2ccocc1-2	> 100 µM	> 100 µM	> 100 µM	–	> 100 µM	> 100 µM	> 100 µM	–	> 100 µM
COC(=O)[C@@H]1C[C@@H](O)CN1C(=O)c1ccc([N+](=O)[O-])cc1[N+](=O)[O-]	> 100 µM	> 100 µM	> 100 µM	> 100 µM	> 100 µM	> 100 µM	> 100 µM	–	> 100 µM
COc1cc(S(=O)(=O)Nc2ccc(-c3csc(N4C(=O)C(C)SC4c4cccs4)n3)cc2)ccc1Cl (centres undefined)	> 100 µM	22.8 µM	49.4 µM	–	> 100 µM	> 100 µM	> 100 µM	> 100 µM	> 100 µM
CNc1cc([N+](=O)[O-])ccc1C(=O)N1CCC[C@H]1CO	> 100 µM	> 100 µM	–	> 100 µM	> 100 µM	> 100 µM	> 100 µM	–	> 100 µM
Cc1[nH]c(C)c(CN(C)C)c1CN(C)C	> 100 µM	> 100 µM	> 100 µM	–	> 100 µM	> 100 µM	> 100 µM	> 100 µM	> 100 µM

Compound	TGI (OVCAR-3 ovarian)	TGI (SK-MEL-2 melanoma)	TGI (COLO 205 colon)	TGI (SNB-75 CNS)	TGI (NCI/ADR-RES ovarian)	TGI (NCI-H226 lung)	TGI (HT29 colon)	TGI (MALME-3M melanoma)	TGI (RPMI-8226 leukemia)
COC(=O)/C=C/CCC#Cc1ccccc1C#CCC/C=C/C(=O)OC	28.2 µM	–	42.3 µM	19 µM	66.2 µM	> 100 µM	40.4 µM	> 100 µM	–
C=C(Cl)/C(=C\Cl)CCC(Cl)C(C)C (centres undefined) (tested in a mixture with another compound)	30.1 µM	27.1 µM	54.6 µM	32.5 µM	84.4 µM	47.9 µM	36.8 µM	29.2 µM	–
C=C1CN=C(Nc2ccc(Cl)cc2)S1	> 100 µM	> 100 µM	> 100 µM	> 100 µM	> 100 µM	–	> 100 µM	> 100 µM	> 100 µM
CC1(C)CC[C@]2(C(=O)O)CC[C@]3(C)C(=CCC4=C5C[C@H](O)[C@H](O)[C@@](C)(CO)[C@@]5(C)CC[C@]43C)[C@@H]2C1	> 100 µM	> 100 µM	30 µM	83.8 µM	> 100 µM	–	> 100 µM	> 100 µM	> 100 µM
C=C1N(S(=O)(=O)c2ccc(C)cc2)C(=O)OCC12CCCC2	> 100 µM	–	> 100 µM	62.6 µM	> 100 µM	> 100 µM	> 100 µM	> 100 µM	> 100 µM
COC(=O)C1(C(=O)OC)N=C(C)OC1c1ccccc1O (centres undefined)	> 100 µM	> 100 µM	> 100 µM	> 100 µM	> 100 µM	> 100 µM	–	–	> 100 µM
Cc1ccc(Sc2ccccc2C23OC(C)(C4C(=O)N(c5ccccc5)C(=O)C42)N(C)C3=O)cc1 (centres undefined)	> 100 µM	> 100 µM	> 100 µM	> 100 µM	> 100 µM	> 100 µM	> 100 µM	> 100 µM	–
O=C(OCc1ccccc1)C(Cc1ccc(OCc2ccccc2)cn1)NC(=O)C(F)(F)F (centres undefined)	> 100 µM	–	> 100 µM	98.8 µM	> 100 µM	> 100 µM	> 100 µM	> 100 µM	> 100 µM
C[N+](C)(C)CC(=O)N/N=C(\Cc1nc2ccc([N+](=O)[O-])cc2[nH]c1=O)C(=O)Nc1nc2ccc([N+](=O)[O-])cc2s1	> 100 µM	> 100 µM	> 100 µM	> 100 µM	> 100 µM	> 100 µM	> 100 µM	–	> 100 µM
COc1ccc(Cc2cc(Cc3ccc(OC)cc3)cc(Cc3ccc(OC)cc3)c2)cc1	> 100 µM	> 100 µM	–	> 100 µM	> 100 µM	> 100 µM	> 100 µM	> 100 µM	> 100 µM
C=C(C)C1CC[C@@](C)(O)[C@H](C#N)C1 (some centres undefined)	> 100 µM	> 100 µM	> 100 µM	> 100 µM	–	> 100 µM	> 100 µM	> 100 µM	> 100 µM
Cc1cc(C)c(NS(=O)c2cccc(C(F)(F)F)c2)c(C)c1 (centres undefined)	> 100 µM	–	> 100 µM	–	> 100 µM	> 100 µM	> 100 µM	> 100 µM	> 100 µM
CCOC(=O)c1ncn(CCc2ccc(Cl)cc2)c1C	> 100 µM	> 100 µM	> 100 µM	–	> 100 µM	> 100 µM	> 100 µM	> 100 µM	> 100 µM
Cc1c(C(=O)c2ccccc2)[n+](=O)c2cc(Cl)c(Cl)cc2n1[O-]	25 µM	21.3 µM	33.5 µM	15.8 µM	38 µM	7.59 µM	28.7 µM	–	19.8 µM
CC1(C)Cc2c(sc3[nH]c(=S)[nH]c(=S)c23)CS1	82.9 µM	> 100 µM	> 100 µM	–	> 100 µM	> 100 µM	> 100 µM	75.6 µM	68.5 µM
O=C(c1cscc1CCc1ccccc1)c1cscc1CCc1ccccc1	–	> 100 µM	> 100 µM	> 100 µM	> 100 µM	> 100 µM	–	> 100 µM	> 100 µM
Cc1ccc(N2C(=O)C3c4[nH]c5ccc(C)cc5c4C4CCC(C(C)(C)C)CC4C3C2=O)cc1 (centres undefined)	27.3 µM	99.5 µM	> 100 µM	–	60.2 µM	48.7 µM	75.5 µM	44.4 µM	46.3 µM
S=C1NC2=C(CSC/C2=C\c2ccc(Cl)cc2)C(c2ccc(Cl)cc2)N1 (centres undefined)	> 100 µM	> 100 µM	32.7 µM	–	> 100 µM	–	> 100 µM	71.3 µM	94.5 µM
